The nature of the data set: HPLC (H3PO4) log P determination. It is filed as physicochemical.

The log P is the decadic logarithm of the partition coefficient of the neutral form, usually between octanol and water. Higher therefore signals a more lipophilic compound. Take `C[S+]([O-])c1c(C(F)(F)F)ccc(C(=O)O)c1Cl` (racemic) [Example 1 Step 1, 2-chloro-3-[(S,R)-methylsulfinyl]-4-(trifluoromethyl)benzoic Acid]: the “log P” value is reported as 0.96.
Usually chromatographic logP stands for lipophilicity estimated from chromatographic retention. As to `C[S@+]([O-])c1c(C(F)(F)F)ccc(C(=O)O)c1Cl` [Example 1, 2-chloro-3-[(S)-methylsulfinyl]-4-(trifluoromethyl)benzoic acid], the chromatographic logP amounted to 1.

The record behind these values is patent publication US20240300908A1, “CHIRAL 3-SULFINYL BENZOIC ACIDS” (BAYER AKTIENGESELLSCHAFT, priority 2021, published 2024).
